According to paper PMC9967564, “Identification of Bioactive Peptides from a Laminaria digitata Protein Hydrolysate Using In Silico and In Vitro Methods to Identify Angiotensin-1-Converting Enzyme (ACE-1) Inhibitory Peptides” (Marine Drugs, 2023):

How the values were obtained:
ACE-II = system: ACE-II; set-up: method as in PMID 24131339; settings: negative control in studies on marine cryptides; ref [49]; read-out: IC50 for ACE-II inhibition; cited from earlier work
ACE-1 = target: T1, ACE-1 (Homo sapiens, UniProt P12821); assay type: biochemical
T1 construct: purchased Cambridge BioSciences (Cambridge, UK)
T1 sequence (P12821 30-1306): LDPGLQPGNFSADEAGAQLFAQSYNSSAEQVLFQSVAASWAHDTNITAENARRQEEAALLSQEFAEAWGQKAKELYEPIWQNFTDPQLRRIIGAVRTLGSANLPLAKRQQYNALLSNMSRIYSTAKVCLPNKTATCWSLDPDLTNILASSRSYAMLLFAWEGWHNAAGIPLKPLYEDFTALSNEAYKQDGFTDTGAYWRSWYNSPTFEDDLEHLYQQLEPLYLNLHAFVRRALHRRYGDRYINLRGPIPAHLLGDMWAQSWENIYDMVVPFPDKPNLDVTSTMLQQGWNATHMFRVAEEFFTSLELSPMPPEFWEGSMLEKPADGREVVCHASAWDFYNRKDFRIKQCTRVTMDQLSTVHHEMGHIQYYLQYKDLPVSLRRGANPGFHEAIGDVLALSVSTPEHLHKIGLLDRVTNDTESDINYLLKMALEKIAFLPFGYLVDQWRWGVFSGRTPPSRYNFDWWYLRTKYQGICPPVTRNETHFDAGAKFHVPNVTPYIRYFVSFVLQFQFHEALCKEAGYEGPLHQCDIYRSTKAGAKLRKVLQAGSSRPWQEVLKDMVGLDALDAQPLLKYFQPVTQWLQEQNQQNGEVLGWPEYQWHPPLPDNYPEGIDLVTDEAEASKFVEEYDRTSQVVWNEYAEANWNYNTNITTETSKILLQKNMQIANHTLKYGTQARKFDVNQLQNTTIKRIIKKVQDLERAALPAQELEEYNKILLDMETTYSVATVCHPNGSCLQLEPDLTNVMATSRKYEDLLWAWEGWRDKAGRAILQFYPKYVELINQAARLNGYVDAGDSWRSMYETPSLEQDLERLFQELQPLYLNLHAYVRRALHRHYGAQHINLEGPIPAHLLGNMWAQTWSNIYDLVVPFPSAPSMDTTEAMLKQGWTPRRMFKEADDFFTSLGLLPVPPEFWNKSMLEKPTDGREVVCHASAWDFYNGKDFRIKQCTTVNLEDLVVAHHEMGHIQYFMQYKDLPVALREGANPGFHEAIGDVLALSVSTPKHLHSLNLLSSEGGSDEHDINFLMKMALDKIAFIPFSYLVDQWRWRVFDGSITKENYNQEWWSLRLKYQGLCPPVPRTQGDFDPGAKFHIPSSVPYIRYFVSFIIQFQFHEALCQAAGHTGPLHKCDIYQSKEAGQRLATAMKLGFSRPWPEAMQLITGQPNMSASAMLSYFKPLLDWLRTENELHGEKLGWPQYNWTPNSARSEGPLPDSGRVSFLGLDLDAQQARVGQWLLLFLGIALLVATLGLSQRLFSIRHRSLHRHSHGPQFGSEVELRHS

CCCCc1nc(Cl)c(CO)n1Cc1ccc(-c2ccccc2-c2nn[nH]n2)cc1 [Losartan]
IC50 (ACE-II): 17.1 to 146 µM

YIHNNPAKGGLF
ACE-1 inhibition (ACE-1): 91%
